In PubChem BioAssay (NCI):
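Cultured in 96-well plates, cells were exposed to test compound for 48 hours across five concentrations. GI50 is the concentration that inhibits growth by half. TGI is the concentration that stops growth completely.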

Key:
Test in all cases: growth of human tumour cells (NCI), 48 h
786-0 renal = tested on: 786-0 renal
A498 renal = tested on: A498 renal
A549 NSCLC = tested on: A549 NSCLC
ACHN renal = tested on: ACHN renal
BT-549 breast = tested on: BT-549 breast
CAKI-1 renal = tested on: CAKI-1 renal
CCRF-CEM leukemia = tested on: CCRF-CEM leukemia
COLO 205 colon = tested on: COLO 205 colon
DU-145 prostate = tested on: DU-145 prostate
EKVX NSCLC = tested on: EKVX NSCLC
HCC-2998 colon = tested on: HCC-2998 colon
HCT-116 colon = tested on: HCT-116 colon
HCT-15 colon = tested on: HCT-15 colon
HOP-62 NSCLC = tested on: HOP-62 NSCLC
HS 578T breast = tested on: HS 578T breast
HT29 colon = tested on: HT29 colon
IGROV1 ovarian = tested on: IGROV1 ovarian
KM12 colon = tested on: KM12 colon
LOX IMVI melanoma = tested on: LOX IMVI melanoma
M14 melanoma = tested on: M14 melanoma
MALME-3M melanoma = tested on: MALME-3M melanoma
MCF7 breast = tested on: MCF7 breast
MDA-MB-231 breast = tested on: MDA-MB-231 breast
MDA-MB-435 = tested on: MDA-MB-435
NCI-H226 lung = tested on: NCI-H226 lung
NCI-H23 lung = tested on: NCI-H23 lung
NCI-H460 lung = tested on: NCI-H460 lung
NCI-H522 lung = tested on: NCI-H522 lung
NCI/ADR-RES ovarian = tested on: NCI/ADR-RES ovarian
OVCAR-3 ovarian = tested on: OVCAR-3 ovarian
OVCAR-4 ovarian = tested on: OVCAR-4 ovarian
OVCAR-5 ovarian = tested on: OVCAR-5 ovarian
OVCAR-8 ovarian = tested on: OVCAR-8 ovarian
PC-3 prostate = tested on: PC-3 prostate
RPMI-8226 leukemia = tested on: RPMI-8226 leukemia
RXF 393 renal = tested on: RXF 393 renal
SF-268 CNS = tested on: SF-268 CNS
SF-295 CNS = tested on: SF-295 CNS
SF-539 CNS = tested on: SF-539 CNS
SK-MEL-2 melanoma = tested on: SK-MEL-2 melanoma
SK-MEL-28 melanoma = tested on: SK-MEL-28 melanoma
SK-MEL-5 melanoma = tested on: SK-MEL-5 melanoma
SK-OV-3 ovarian = tested on: SK-OV-3 ovarian
SN12C renal = tested on: SN12C renal
SNB-19 CNS = tested on: SNB-19 CNS
SNB-75 CNS = tested on: SNB-75 CNS
SR leukemia = tested on: SR leukemia
SW-620 colon = tested on: SW-620 colon
T-47D breast = tested on: T-47D breast
TK-10 renal = tested on: TK-10 renal
U251 CNS = tested on: U251 CNS
UACC-257 melanoma = tested on: UACC-257 melanoma
UACC-62 melanoma = tested on: UACC-62 melanoma
UO-31 renal = tested on: UO-31 renal

Q: COc1ccc(Nc2[nH]n(C3=Nc4ccccc4Sc4ccccc43)c(=O)c2C#N)cc1 was tested. Which GI50 (786-0 renal) did it give?
A: Its GI50 is 2.67 µM.

Q: And the TGI (786-0 renal)?
A: The TGI was 22.3 µM.

Q: And the GI50 (A498 renal)?
A: The GI50 was 1.39 µM.

Q: And the TGI (A498 renal)?
A: The TGI was 8.01 µM.

Q: And the GI50 (A549 NSCLC)?
A: The GI50 was 1.62 µM.

Q: And the TGI (A549 NSCLC)?
A: The TGI was over 100 µM.

Q: And the GI50 (ACHN renal)?
A: Its GI50 is 1.15 µM.

Q: What about the TGI (ACHN renal) of the same molecule?
A: The TGI was over 100 µM.

Q: And the GI50 (BT-549 breast)?
A: Its GI50 is 0.494 µM.

Q: What about the TGI (BT-549 breast) of the same molecule?
A: The TGI was 3.4 µM.

Q: And the GI50 (CAKI-1 renal)?
A: Its GI50 is 0.255 µM.

Q: What about the TGI (CAKI-1 renal) of the same molecule?
A: Its TGI is 1.57 µM.

Q: What about the GI50 (CCRF-CEM leukemia) of the same molecule?
A: Its GI50 is 1.19 µM.

Q: What about the TGI (CCRF-CEM leukemia) of the same molecule?
A: The TGI was over 100 µM.

Q: What about the GI50 (COLO 205 colon) of the same molecule?
A: Its GI50 is 1.51 µM.

Q: What about the TGI (COLO 205 colon) of the same molecule?
A: The TGI was 3.35 µM.

Q: What about the GI50 (DU-145 prostate) of the same molecule?
A: The GI50 was 2.83 µM.

Q: And the TGI (DU-145 prostate)?
A: Its TGI is 61.5 µM.

Q: And the GI50 (EKVX NSCLC)?
A: Its GI50 is 0.781 µM.

Q: And the TGI (EKVX NSCLC)?
A: The TGI was over 100 µM.

Q: What about the GI50 (HCC-2998 colon) of the same molecule?
A: The GI50 was 2.32 µM.

Q: What about the TGI (HCC-2998 colon) of the same molecule?
A: Its TGI is 10.5 µM.

Q: What about the GI50 (HCT-116 colon) of the same molecule?
A: The GI50 was 1.33 µM.

Q: What about the TGI (HCT-116 colon) of the same molecule?
A: The TGI was 12 µM.

Q: What about the GI50 (HCT-15 colon) of the same molecule?
A: The GI50 was 1.87 µM.

Q: And the TGI (HCT-15 colon)?
A: The TGI was 34.1 µM.

Q: And the GI50 (HOP-62 NSCLC)?
A: Its GI50 is 3.06 µM.

Q: What about the TGI (HOP-62 NSCLC) of the same molecule?
A: The TGI was over 100 µM.

Q: What about the GI50 (HS 578T breast) of the same molecule?
A: Its GI50 is 1.98 µM.

Q: What about the TGI (HS 578T breast) of the same molecule?
A: Its TGI is over 100 µM.

Q: What about the GI50 (HT29 colon) of the same molecule?
A: Its GI50 is 1.99 µM.

Q: What about the TGI (HT29 colon) of the same molecule?
A: Its TGI is 9.35 µM.

Q: What about the GI50 (IGROV1 ovarian) of the same molecule?
A: The GI50 was 2.79 µM.

Q: What about the TGI (IGROV1 ovarian) of the same molecule?
A: The TGI was over 100 µM.

Q: And the GI50 (KM12 colon)?
A: Its GI50 is 1.64 µM.

Q: And the TGI (KM12 colon)?
A: The TGI was 11.3 µM.

Q: What about the GI50 (LOX IMVI melanoma) of the same molecule?
A: Its GI50 is 1.37 µM.

Q: And the TGI (LOX IMVI melanoma)?
A: The TGI was 4.27 µM.

Q: And the GI50 (M14 melanoma)?
A: The GI50 was 2.49 µM.

Q: And the TGI (M14 melanoma)?
A: The TGI was 9.64 µM.

Q: What about the GI50 (MALME-3M melanoma) of the same molecule?
A: Its GI50 is 2.67 µM.

Q: What about the TGI (MALME-3M melanoma) of the same molecule?
A: Its TGI is over 100 µM.

Q: What about the GI50 (MCF7 breast) of the same molecule?
A: Its GI50 is 2.18 µM.

Q: And the TGI (MCF7 breast)?
A: Its TGI is 11.7 µM.

Q: What about the GI50 (MDA-MB-231 breast) of the same molecule?
A: The GI50 was 1.39 µM.

Q: What about the TGI (MDA-MB-231 breast) of the same molecule?
A: Its TGI is 11.9 µM.

Q: And the GI50 (MDA-MB-435)?
A: The GI50 was 1.13 µM.

Q: And the TGI (MDA-MB-435)?
A: The TGI was 3.99 µM.

Q: What about the GI50 (NCI-H226 lung) of the same molecule?
A: The GI50 was 1.48 µM.

Q: And the TGI (NCI-H226 lung)?
A: The TGI was 9.81 µM.

Q: And the GI50 (NCI-H23 lung)?
A: The GI50 was 0.637 µM.

Q: What about the TGI (NCI-H23 lung) of the same molecule?
A: Its TGI is 6.64 µM.

Q: What about the GI50 (NCI-H460 lung) of the same molecule?
A: Its GI50 is 1.95 µM.

Q: What about the TGI (NCI-H460 lung) of the same molecule?
A: Its TGI is 12 µM.

Q: What about the GI50 (NCI-H522 lung) of the same molecule?
A: The GI50 was 0.4 µM.

Q: And the TGI (NCI-H522 lung)?
A: Its TGI is 3.87 µM.

Q: And the GI50 (NCI/ADR-RES ovarian)?
A: The GI50 was 1.43 µM.

Q: What about the TGI (NCI/ADR-RES ovarian) of the same molecule?
A: The TGI was 6.64 µM.

Q: And the GI50 (OVCAR-3 ovarian)?
A: The GI50 was 1.78 µM.

Q: And the TGI (OVCAR-3 ovarian)?
A: The TGI was 8.64 µM.

Q: What about the GI50 (OVCAR-4 ovarian) of the same molecule?
A: Its GI50 is 0.803 µM.

Q: What about the TGI (OVCAR-4 ovarian) of the same molecule?
A: The TGI was over 100 µM.

Q: And the GI50 (OVCAR-5 ovarian)?
A: The GI50 was 10.8 µM.

Q: And the TGI (OVCAR-5 ovarian)?
A: The TGI was over 100 µM.

Q: What about the GI50 (OVCAR-8 ovarian) of the same molecule?
A: Its GI50 is 2.01 µM.

Q: What about the TGI (OVCAR-8 ovarian) of the same molecule?
A: The TGI was over 100 µM.

Q: What about the GI50 (PC-3 prostate) of the same molecule?
A: The GI50 was 0.676 µM.

Q: And the TGI (PC-3 prostate)?
A: Its TGI is over 100 µM.

Q: What about the GI50 (RPMI-8226 leukemia) of the same molecule?
A: The GI50 was 1.59 µM.

Q: What about the TGI (RPMI-8226 leukemia) of the same molecule?
A: Its TGI is over 100 µM.

Q: And the GI50 (RXF 393 renal)?
A: The GI50 was 1.73 µM.

Q: What about the TGI (RXF 393 renal) of the same molecule?
A: Its TGI is 9.75 µM.

Q: What about the GI50 (SF-268 CNS) of the same molecule?
A: Its GI50 is 2.37 µM.

Q: And the TGI (SF-268 CNS)?
A: The TGI was 34.3 µM.

Q: What about the GI50 (SF-295 CNS) of the same molecule?
A: Its GI50 is 0.56 µM.

Q: And the TGI (SF-295 CNS)?
A: Its TGI is 4.34 µM.

Q: What about the GI50 (SF-539 CNS) of the same molecule?
A: Its GI50 is 3.37 µM.

Q: What about the TGI (SF-539 CNS) of the same molecule?
A: Its TGI is 40.9 µM.

Q: What about the GI50 (SK-MEL-2 melanoma) of the same molecule?
A: Its GI50 is 1.74 µM.

Q: What about the TGI (SK-MEL-2 melanoma) of the same molecule?
A: The TGI was 5 µM.

Q: And the GI50 (SK-MEL-28 melanoma)?
A: The GI50 was 3.87 µM.

Q: What about the TGI (SK-MEL-28 melanoma) of the same molecule?
A: Its TGI is over 100 µM.

Q: What about the GI50 (SK-MEL-5 melanoma) of the same molecule?
A: Its GI50 is 0.396 µM.

Q: What about the TGI (SK-MEL-5 melanoma) of the same molecule?
A: The TGI was 1.48 µM.

Q: What about the GI50 (SK-OV-3 ovarian) of the same molecule?
A: Its GI50 is 5.9 µM.

Q: And the TGI (SK-OV-3 ovarian)?
A: The TGI was 54.1 µM.

Q: And the GI50 (SN12C renal)?
A: Its GI50 is 2.36 µM.

Q: And the TGI (SN12C renal)?
A: The TGI was over 100 µM.

Q: What about the GI50 (SNB-19 CNS) of the same molecule?
A: The GI50 was 3.53 µM.

Q: And the TGI (SNB-19 CNS)?
A: Its TGI is over 100 µM.

Q: What about the GI50 (SNB-75 CNS) of the same molecule?
A: The GI50 was 1.51 µM.

Q: And the TGI (SNB-75 CNS)?
A: The TGI was over 100 µM.

Q: What about the GI50 (SR leukemia) of the same molecule?
A: The GI50 was 0.518 µM.

Q: And the TGI (SR leukemia)?
A: Its TGI is over 100 µM.

Q: And the GI50 (SW-620 colon)?
A: Its GI50 is 3.18 µM.

Q: And the TGI (SW-620 colon)?
A: The TGI was over 100 µM.

Q: What about the GI50 (T-47D breast) of the same molecule?
A: Its GI50 is 0.696 µM.

Q: And the TGI (T-47D breast)?
A: Its TGI is 9.22 µM.

Q: And the GI50 (TK-10 renal)?
A: Its GI50 is 3.81 µM.

Q: What about the TGI (TK-10 renal) of the same molecule?
A: Its TGI is 41 µM.

Q: What about the GI50 (U251 CNS) of the same molecule?
A: Its GI50 is 2.5 µM.

Q: And the TGI (U251 CNS)?
A: The TGI was 43.3 µM.

Q: What about the GI50 (UACC-257 melanoma) of the same molecule?
A: Its GI50 is 1.13 µM.

Q: What about the TGI (UACC-257 melanoma) of the same molecule?
A: The TGI was 7.03 µM.

Q: And the GI50 (UACC-62 melanoma)?
A: Its GI50 is 1.21 µM.

Q: What about the TGI (UACC-62 melanoma) of the same molecule?
A: Its TGI is 11 µM.

Q: And the GI50 (UO-31 renal)?
A: Its GI50 is 1.02 µM.

Q: What about the TGI (UO-31 renal) of the same molecule?
A: The TGI was over 100 µM.
